According to patent EP0223671A1, “Medicament with a synergistic anti-inflammatory effect on the basis of a corticosteroid and a beta-agonist” (CENTRE INTERNATIONAL DE RECHERCHES DERMATOLOGIQUES GALDERMA …, priority 1985, dated 1987):
Counter-ions that a name gives are not always drawn. Marks after values point to notes of the source that are not given here.

Tests used:
[1] = test system: oedème de l'oreille induit par l'huile de croton; experiment: Croton oil-induced ear oedema test in the rat; type: in vivo; settings: inhibition of oedema vs control animals, topical on right ear 1 h before croton oil, read 6 h after, hydro-ethanolic gel vehicle
Method: On applique de façon normalisée sur les faces interne et externe de l'oreille droite de rats une solution d'huile de croton ayant la composition suivante: • - pyridine : 4ml • - oxyde de diéthyle: 13ml • - huile de croton^*: 2ml • - eau qsp 20ml ^* SIGMA réf. C4755
Les animaux traités reçoivent, une heure avant l'application de l'huile de croton, une application sur l'oreille droite par voie topique, du produit étudié dans le véhicule suivant (placebo):gel hydroéthanolique à 2X d'hydroxypropyl cellulose (KLUCEL HF); (proportion eau-éthanol : 80/20).
Les animaux témoins ne reçoivent que l'application d'huile de croton.
Six heures après l'application d'huile de croton, on évalue l'importance de l'oedème par comparaison de l'oreille droite et de l'oreille gauche. On calcule ensuite l'inhibition de l'oedème, en pourcentage, par rapport aux animaux témoins.

érythème induit par UVB = experiment: UVB-induced erythema test in the guinea pig; type: in vivo, cobaye; settings: dose 5 % p/v, 100 microlitres per site, topical 1 h after irradiation; vs animals given vehicle alone
Method: Les flancs des cobayes sont rasés à la tondeuse 24 heures avant l'expérience. On soumet les animaux à une irradiation à l'aide d'une lampe à vapeur de mercure. On irradie pendant 30 secondes deux sites de diamètre 1,5cm sur chaque flanc. Une heure après l'irradiation, on applique par voie topique le produit étudié sur chaque site irradié d'un seul flanc. Les observations de l'érythème sont faites 2h, 3,5h, 5h et 24h après l'application du produit. L'érythème est évalué selon une échelle de 0 à 5.
Les produits sont appliqués dans le véhicule suivant: • N,N-diméthylacétamide: 20ml • acétone : 40ml • éthanol : 40ml
On applique un volume de 100 microlitres par site.
On évalue l'importance de l'érythème en comparant les flancs droit et gauche. On calcule ensuite l'inhibition de l'érythème, en pourcentage, par rapport aux animaux témoins ayant reçu une application du véhicule seul.

CC(C)NCC(O)COc1cccc2ccccc12 (stereo not shown) [PROPRANOLOL]
P[…]'INHIBITION ([1]; dose 0.5 % p/v): 5%

CC(C)(C)NCC(O)c1ccc(O)c(CO)c1 (stereo not shown) [SALBUTAMOL SULFATE, 2-(tert-butylamino)-1-(4-hydroxy-3-hydroxyphényl)éthanol]
POURCENTAGE D'INHIBITION ([1]; dose 0.5 % p/v): 14%

CC(C)(C)NCC(O)c1cc(O)cc(O)c1 (stereo not shown) [TERBUTALINE SULFATE, 1-(3,5-dihydroxyphényl)-2-(tert-butylamino)éthanol]
POURCENTAGE D'INHIBITION ([1]; dose 0.5 % p/v): 12%

C[C@]12CCC(=O)C=C1CC[C@@H]1[C@@H]2[C@@H](O)C[C@@]2(C)[C@H]1CC[C@]2(O)C(=O)CO [HYDROCORTISONE, Hydrocortisone]
POURCENTAGE D'INHIBITION ([1]; dose 0.1 % p/v): 14%
POURCENTAGE D'INHIBITION DE L'ERYTHEME 5 HEURES APRES APPLICATION (érythème induit par UVB): 3 NS %

CCCC(=O)O[C@]1(C(=O)CO)CC[C@H]2[C@@H]3CCC4=CC(=O)CC[C@]4(C)[C@H]3[C@@H](O)C[C@@]21C [HYDROCORTISONE 17 BUTYRATE, Hydrocortisone-17 butyrate]
POURCENTAGE D'INHIBITION ([1]; dose 0.1 % p/v): 30%

CC(C)(C)NCC(O)c1ccc(O)c(CO)c1 (stereo not shown) [SALBUTAMOL, 2-(tert-butylamino)-1-(4-hydroxy-3-hydroxyphényl)éthanol]
POURCENTAGE D'INHIBITION DE L'ERYTHEME 5 HEURES APRES APPLICATION (érythème induit par UVB): 14 * %
